What all share (assay): NCI tumour cell line growth inhibition, 48 h
Experiment [1] concerns RXF-631 renal.
Experiment [2] has as its system LXFL 529 NSCLC.
The subject of experiment [3] is KM20L2 colon.
Experiment [4] concerns HOP-18 NSCLC.
Experiment [5] deals with SNB-78 CNS.
In experiment [6] the test system is M19-MEL melanoma.
Experiment [7] concerns XF 498 CNS.
The test system of experiment [8] is DMS 273 small cell lung.
In experiment [9] the test system is MDA-N.
Experiment [10] relates to P388/ADR leukemia.
In experiment [11] the test system is P388 leukemia.

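Cultured in 96-well plates, cells were exposed to test compound for 48 hours across five concentrations. The concentration for 50% growth inhibition is given as GI50. The concentration for full growth arrest is given as TGI.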

As for `CCC[CH2][Sn]([CH2]CCC)([O]C(=O)c1cc(F)ccc1F)[O]C(=O)c1cc(F)ccc1F`, the GI50 in [1] is 0.154 µM; in experiment [2] it was 0.176 µM; in experiment [3] it was 1.76 µM; in experiment [4], 2.21 µM; in [5], 0.419 µM; in experiment [6], 0.537 µM. The GI50 in [7] was 1.8 µM; in experiment [8], 1.2 µM. Further, the TGI in experiment [1] amounted to 0.363 µM; in experiment [2], 0.491 µM; in [3], 3.37 µM; in [4], 3.67 µM; in experiment [5] it was 1.86 µM; in [6], 1.8 µM. In addition, the TGI in experiment [7] was found to be 3.21 µM; in [8] it was 2.45 µM.

For the molecule `COc1cc(C2c3cc4c(cc3[C@@H](Nc3ccc([N+](=O)[O-])cc3)C3COC(=O)[C@H]23)OCO4)cc(OC)c1O` (stereo partly specified), the TGI in experiment [1] was 11.4 µM; in experiment [2], 78.3 µM; in [3], 14.8 µM; in [4], 77.2 µM; in [9] it was over 100 µM; in [5], over 71.5 µM. For the same molecule, the TGI in experiment [6] was 22.8 µM; in [7], 15 µM; in experiment [10], 10.7 µM; in [11] it was over 100 µM; in [8], 5.65 µM. Also, the GI50 in experiment [6] is 0.942 µM; in experiment [7] it was 0.613 µM; in experiment [8], 0.274 µM.

Regarding `O=[N+]([O-])c1ccc(C2SCc3nc4ccccc4n32)cc1` (stereo unspecified), the TGI in [1], in experiment [2], in experiment [3], in experiment [4], in experiment [5] and in [6] was over 100 µM each time. In addition, the TGI was 80.6 µM in [7] and over 100 µM in experiment [8].

Take `O=C(O)/C(Cl)=C(Cl)/C=N/NC(=O)c1cc2ccccc2cc1O`: the TGI was over 100 µM in experiment [1]; over 100 µM in experiment [2]; 87.2 µM in experiment [3]; 80.5 µM in experiment [4]; over 100 µM in experiment [5]; 75.4 µM in experiment [6]. For the same molecule, the TGI was over 100 µM in experiment [7] and 45.2 µM in experiment [8].

`Cc1cc(N(CCC#N)CCC#N)ccc1/C=C(\NC(=O)/C=C/c1ccccc1)C(=O)Nc1ccc(Cl)cc1`: the TGI is over 100 µM in experiment [1]; over 100 µM in experiment [2]; over 79.6 µM in experiment [3]; over 100 µM in [4]; over 100 µM in experiment [9]; over 100 µM in experiment [5]. For the same molecule, the figures for the TGI in [6], in experiment [7] and in experiment [8] were over 38.1 µM, over 100 µM and over 100 µM, respectively.

As for `CCCS(=O)c1nc(COC(=O)NC)c(COC(=O)NC)n1C` (stereo unspecified), the TGI in [1], in experiment [2], in [3], in [4], in experiment [5] and in experiment [6] was over 100 µM throughout. The TGI in experiment [7], in [10], in [11] and in experiment [8] was over 100 µM throughout.

`COC(=O)C12C34C=CC5(CCC6(C=CC1(CC3)O6)C52C(=O)OC)O4` (stereo unspecified): the TGI in [1], in experiment [2], in [3], in experiment [4], in [5] and in experiment [6] was over 100 µM throughout. Further, the TGI in experiment [7] and in experiment [8] was over 100 µM throughout.

Turning to `CN(C)C(=S)/N=c1\ssc(=S)n1Cc1ccco1`, the TGI in experiment [1], in [2], in [3], in [4], in experiment [5] and in experiment [6] was over 100 µM throughout. For the same molecule, the TGI is 60.1 µM in experiment [7] and over 42.2 µM in experiment [8].

`CCOC(=O)/C(C#N)=C\Sc1ccccc1`: the TGI in experiment [1] is 53.2 µM; in experiment [2] it was 57.3 µM; in experiment [3], 51.9 µM; in experiment [4] it was over 100 µM; in experiment [5], over 100 µM; in [6], 63.8 µM. For the same molecule, the TGI in experiment [7] is over 100 µM; in experiment [8] it was 41.9 µM.

Turning to `O=C1C(Cl)=C(Cl)C(=O)N1c1cccc(C(F)(F)F)c1`, the TGI in experiment [1], in [2], in experiment [3], in experiment [4], in experiment [5] and in [6] was over 100 µM each time. Moreover, the TGI in experiment [7] and in [8] was over 100 µM in each case.

In the case of `O=C1C(Cl)=C(Cl)C(=O)N1c1ccc(F)cc1`, the TGI was over 72.6 µM in [1]; 32.1 µM in experiment [2]; 52.8 µM in experiment [3]; 43.1 µM in [4]; 48.7 µM in experiment [9]; 71.3 µM in experiment [5]. Also, the TGI in experiment [6] was 41.8 µM; in experiment [7] it was 34.9 µM; in [8], over 62 µM.
